US6630312B2, “Method for identifying compounds for treatment of insulin resistance” (Joslin Diabetes Center, Inc., priority 1999, dated 2003)

Experiments:
Zucker fa/fa rats = assay: Effects of high-dose salicylates in Zucker fa/fa rats (GTT, ITT, serum lipids, ALT)
Excerpt: (§1) Ob/ob mice are leptin deficient.

Zucker fa/+ rats = assay: Effects of high-dose aspirin in Zucker fa/+ rats (oral GTT); format: in vivo, rat; conditions: 120 mg/kg/day
Excerpt: as §1

ob/+ mice = assay: Effects of high-dose aspirin in ob/+ mice (GTT); format: in vivo, mouse; conditions: aspirin treatment, 120 mg/kg/day; intraperitoneal GTT
Excerpt: as §1

Insulin receptor (IR) = assay: Insulin receptor tyrosine autophosphorylation in tissues from treated Zucker rats; format: in vivo, rat; conditions: liver and muscle of treated Zucker rats vs untreated
Protocol: (§2) Tissues were isolated from treated animals and insulin signaling proteins were analyzed. […] A cascade consisting of insulin receptor (IR), insulin-receptor substrate (IRS) proteins, PI 3-kinase and 3-phosphoinositide-dependent protein kinase-1 (PDK1), is required for maintenance of metabolic homeostasis.

AKT kinase = assay: Insulin-stimulated AKT phosphorylation in tissues from treated Zucker rats; format: in vivo, rat; conditions: liver and muscle of treated Zucker rats vs untreated
Protocol: as §2

IRS-1 [1] = assay: Electrophoretic mobility of IRS-1 from livers of treated animals; format: in vivo; conditions: animal livers; suggests decrease in Ser/Thr phosphorylation
Excerpt: In cultured cells, IRS proteins are especially prone to phosphorylation on serine and threonine residues, which opposes the effect of tyrosine phosphorylation by inhibiting signaling.

IR β-subunit = assay: Insulin-stimulated tyrosine phosphorylation of IR in 3T3-L1 adipocytes made 'insulin resistant'; format: cell-based
Protocol: (§3) Culture cells were used as follows to investigate the mechanisms relating to salicylate treatment to the in vivo reversal of insulin resistance. TNF-α treatment of 3T3-L1 adipocytes induced ‘insulin resistance’, as judged by significant decreases in insulin-stimulated tyrosine phosphorylation of IR β-subunit (42±11%) and IRS-1 (37±9%). TNF-α mediated ‘insulin resistance’ was reversed by pretreatment with high-dose (5 mM) aspirin. IR and IRS-1 phosphorylation levels were restored to 126±24% and 136±35%, respectively, compared to untreated controls; IR and IRS-1 protein levels were unchanged in TNF-α and aspirin-treated cells. TNF-α activates a cascade of adapters and kinases, including TRADD, RIP, TRAF2, and TAB1, which act upstream of JNK, p38 MAPK, and the IKK complex. Okadaic acid and calyculin A, two phosphatase inhibitors, also activate IKKβ (DiDonato et al. (1997) Nature 388:548; Harhaj & Sun (1997) J Biol Chem 272:5409), but without activating upstream elements in the TNF-α signaling cascade. Okadaic acid and calyculin A also induce ‘insulin resistance’ in isolated tissues and cultured cells (Robinson et al (1993) Am J Physiol 265:E36; Paz et al (1997) J. Biol Chem 272:29911). Therefore, it was determined whether aspirin would reverse ‘insulin resistance’ caused by these inhibitors. Marked reductions in insulin-stimulated IR (29±12%) and IRS-1 (16±2%) tyrosine-phosphorylation were prevented by incubating the cells with high-dose aspirin (109±15% and 93±25%, respectively).
(§4) Hyperglycemia- and hyperinsulinemia-induced insulin resistance in diabetic subjects can be mimicked in cell culture by incubation with high concentrations of glucose and insulin. Potential mechanisms include glucose-induced activation of PKC, which can activate IKK. […] Concurrent treatment with aspirin restored IR (107±23%) and IRS-1 (90±23%) tyrosine-phosphorylation to levels seen in cells incubated at 5.5 mM glucose. […] Protein levels were restored by concurrent treatment with aspirin. Serine phosphorylation of IκB leads to ubiquitination and proteosome-mediated degradation. IRS proteins may be degraded by a similar route and in both cases, downregulation was inhibited by aspirin.

IRS-1 [2] = assay: Insulin-stimulated tyrosine phosphorylation of IRS-1 in 3T3-L1 adipocytes made 'insulin resistant'; format: cell-based
Protocol: as §3, §4

IRS-2 = assay: Tyrosine phosphorylation of IRS-2 in Fao hepatoma cells, TNF-α induced 'insulin resistance'; format: cell-based; conditions: Fao hepatoma cells, TNF-α plus drug
IR, IRS-2 and AKT = assay: Insulin-stimulated activation of IR, IRS-2 and AKT in HEK293 cells expressing IKKβ, IKKα or NIK; format: cell-based; conditions: treatment with aspirin
Excerpt: To directly test the potential role of IKK, The IKKα and IKKβ catalytic subunits and NIK, an upstream activator, were expressed in HEK293 cells. Insulin stimulated the activation of IR, IRS-2 and AKT in these cells. Activation was attenuated by expression of IKKβ, IKKα or NIK. Attenuated activation was reversed by treatment with aspirin.

Sprague-Dawley rats = assay: Insulin sensitivity in Sprague-Dawley rats on aspirin treatment; format: in vivo, rat; conditions: rats not insulin resistant, obese, or diabetic
ob/ob mice = conditions: 120 mg/kg/day
Protocol: FIGS. 1A-H: In vivo effects of aspirin in Zucker fatty rats and ob/ob mice. (panels A-F) Twelve-week-old male Zucker rats (Harlan) and (panels G,H) eight-week-old ob/ob and ob/+ mice (Jackson Labs) were given free access to food and water. […] For glucose tolerance tests (GTT), glucose (2.0 g/kg) was administered by oral gavage (rats) or intraperitoneal injection (mice) after an overnight fast. (panels A,C) Blood glucose and (panels B,D) serum insulin levels were determined during oral glucose tolerance tests in (panels A,B) six Zucker fa/fa rats and (panels C,D) six fa/+ rats. For insulin tolerance tests (ITT) in (panel E) six Zucker fa/fa rats, insulin (2.0 U/kg) was injected intraperitoneally after an overnight fast. (panel F) Cholesterol (Chol), triglyceride (TG), long chain free fatty acid (FFA), and liver alanine aminotransferase (ALT) levels were measured in sera from fasting Zucker fa/fa rats. Glucose tolerance tests were conducted with (panel G) ten ob/ob mice and (panel H) ten ob/+ mice. Data are mean±SEM values; some SEM values are within the area of the symbols.
A determination of the effects of high-dose salicylates on obese rodents with severe insulin resistance was performed as follows. Twelve-week-old male Zucker fa/fa rats and eight-week-old male ob/ob mice were treated for 3-4 weeks with 120 mg/kg/day of aspirin or salicylate, administered by continuous subcutaneous infusion; this dose is roughly equivalent to 5-10 g/day in humans.

IKKβ = biological target: T1, IKKβ (Homo sapiens, UniProt O14920); conditions: Yin et al (1998); cited from earlier work
T1 sequence (O14920 1-756): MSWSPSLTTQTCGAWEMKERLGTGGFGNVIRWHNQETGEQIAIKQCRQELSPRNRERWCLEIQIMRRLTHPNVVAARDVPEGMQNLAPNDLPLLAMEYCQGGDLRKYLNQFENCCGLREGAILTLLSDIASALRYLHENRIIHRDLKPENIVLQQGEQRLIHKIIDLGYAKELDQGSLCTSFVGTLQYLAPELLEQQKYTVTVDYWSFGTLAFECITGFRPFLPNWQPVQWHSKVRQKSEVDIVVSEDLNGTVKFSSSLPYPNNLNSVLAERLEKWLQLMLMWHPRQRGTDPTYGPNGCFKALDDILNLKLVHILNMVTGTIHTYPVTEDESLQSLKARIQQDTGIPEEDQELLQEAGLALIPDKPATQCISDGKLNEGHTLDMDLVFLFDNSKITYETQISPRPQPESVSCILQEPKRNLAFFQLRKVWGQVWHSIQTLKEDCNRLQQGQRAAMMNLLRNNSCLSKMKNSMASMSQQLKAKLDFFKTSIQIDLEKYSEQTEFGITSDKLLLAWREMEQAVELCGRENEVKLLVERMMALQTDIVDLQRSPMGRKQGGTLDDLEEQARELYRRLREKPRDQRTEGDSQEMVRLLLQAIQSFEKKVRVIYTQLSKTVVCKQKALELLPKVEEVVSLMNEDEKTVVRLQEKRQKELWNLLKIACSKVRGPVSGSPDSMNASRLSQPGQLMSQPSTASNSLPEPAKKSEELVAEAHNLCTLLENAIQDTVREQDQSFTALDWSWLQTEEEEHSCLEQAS

cyclooxygenases = conditions: Furst (1994); cited from earlier work
[3] = 3T3-L1 adipocytes overnight in 25 mM glucose and 10 nM insulin, concurrent aspirin, relative to cells at 5.5 mM glucose
[4] = 3T3-L1 adipocytes, TNF-α, pretreatment with 5 mM aspirin
[5] = phosphatase inhibitor-induced 'insulin resistance', cells incubated with high-dose aspirin

CC(=O)Oc1ccccc1C(=O)O [aspirin]
Insulin levels during glucose tolerance test (Zucker fa/fa rats; 120 mg/kg/day continuous subcutaneous infusion, 3-4 weeks, oral GTT): Concomitant reductions
Fasting blood glucose values and glucose tolerance (Zucker fa/fa rats; 120 mg/kg/day continuous subcutaneous infusion, 3-4 weeks, oral GTT, compared to untreated controls): improved
Food intake, blood chemistry, or body weight (Zucker fa/fa rats; Zucker fa/fa rats, 120 mg/kg/day): Neither aspirin nor salicylate affected
Free fatty acid (FFA) levels (Zucker fa/fa rats; after the treatment period, aspirin 120 mg/kg/day): 1.1 ± 0.2 mM
Fasting triglyceride levels (Zucker fa/fa rats; after three weeks of aspirin treatment, 120 mg/kg/day): 90 ± 58 mg/dL
Cholesterol levels (Zucker fa/fa rats; fasting serum, aspirin 120 mg/kg/day): unaffected
Blood glucose in insulin tolerance test (Zucker fa/fa rats; intraperitoneal insulin 2.0 U/kg after overnight fast, aspirin-treated animals): dramatic decreases
Time to drop in FFA levels after aspirin initiation (Zucker fa/fa rats; preceding reductions in triglyceride and glucose levels): ≤ 1 week
Serum levels of liver enzyme alanine aminotransferase (ALT) (hepatotoxicity) (Zucker fa/fa rats; throughout the studies): normal, low
Insulin levels during glucose tolerance test (Zucker fa/+ rats; aspirin-treated group): Significantly lower
Glucose levels during glucose tolerance test (Zucker fa/+ rats; following aspirin treatment): marginally reduced
Glucose intolerance (ob/+ mice): normalized
Insulin receptor (IR) tyrosine autophosphorylation (Insulin receptor (IR)): Significantly increased stimulation
Insulin-stimulated AKT phosphorylation (AKT kinase): increased
Electrophoretic mobility of IRS-1 (IRS-1 [1]): increased
Insulin-stimulated IR tyrosine-phosphorylation (IR β-subunit; [3]): 107±23%
IR and IRS-1 protein levels (IR β-subunit; 3T3-L1 adipocytes, TNF-α and aspirin-treated cells): unchanged
IR phosphorylation level compared to untreated controls (IR β-subunit; [4]): 126±24%
Protein levels of insulin signaling proteins downregulated by high glucose and insulin (IR β-subunit; 3T3-L1 adipocytes, concurrent treatment with aspirin): restored
Insulin-stimulated IR tyrosine-phosphorylation (IR β-subunit; [5]): 109±15%
Insulin-stimulated IRS-1 tyrosine-phosphorylation (IRS-1 [2]; [3]): 90±23%
IRS-1 phosphorylation level compared to untreated controls (IRS-1 [2]; [4]): 136±35%
Insulin-stimulated IRS-1 tyrosine-phosphorylation (IRS-1 [2]; [5]): 93±25%
Reduced electrophoretic mobility of IRS-1 due to calyculin A-induced phosphorylation (IRS-1 [2]; with aspirin): reversed
Tyrosine-phosphorylation of IRS-2 (IRS-2): 115±31%
Activation of IR, IRS-2 and AKT attenuated by expression of IKKβ, IKKα or NIK (IR, IRS-2 and AKT): reversed
Insulin sensitivity (Sprague-Dawley rats): increased insulin sensitivity
Fasting blood glucose values and glucose tolerance (ob/ob mice; 3-4 weeks, intraperitoneal GTT, compared to untreated controls, every time point): significantly improved
Food intake, blood chemistry, or body weight (ob/ob mice; ob/ob mice): Neither aspirin nor salicylate affected
Inhibition of IKKβ, relative potency (IKKβ): equipotent inhibitors
Potency towards the cyclooxygenases, aspirin relative to sodium salicylate (cyclooxygenases): ~100 fold
